# Experimental data taken from publication PMC10788917 (Journal of Medicinal Chemistry, 2023).
# Where two headings read alike, the source gives them in different places.
# Legend:
# HDAC8 = molecular target: T1, HDAC8 (Homo sapiens, UniProt Q9BY41); experiment: Covalent labeling, tryptic digestion and MS/MS; assay type: binding
# T1 construct: one additional N-terminal residue 'H' (His) (N)
# T1 sequence (Q9BY41 1-377): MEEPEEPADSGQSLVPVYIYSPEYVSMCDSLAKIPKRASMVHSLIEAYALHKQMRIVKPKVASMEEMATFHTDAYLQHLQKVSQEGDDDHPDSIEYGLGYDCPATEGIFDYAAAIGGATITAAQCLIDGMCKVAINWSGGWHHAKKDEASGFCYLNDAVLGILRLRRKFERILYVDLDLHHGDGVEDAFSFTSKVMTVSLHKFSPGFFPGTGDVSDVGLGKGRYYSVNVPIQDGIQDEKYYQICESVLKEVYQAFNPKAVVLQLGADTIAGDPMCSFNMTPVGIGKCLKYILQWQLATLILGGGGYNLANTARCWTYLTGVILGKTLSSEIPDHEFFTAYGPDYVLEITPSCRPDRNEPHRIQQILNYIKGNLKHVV
# Experimental: The covalent labeling procedure was conducted as described previously with slight modifications.[31] First, 25 μM HDAC8 was treated with 250 μM covalent probes for 1 h at 30 °C in the assay buffer described above. The protein was then precipitated by the addition of 10% TCA and then centrifuged at 18000g for 15 min. The supernatant was removed, and the dry pellet was diluted in buffer [50 mM NH4HCO3 (pH 7.8)]. After the fragment labeling was completed, 50 μL of the sample and 10 μL of a 0.2% (w/v) RapiGest SF (Waters, Milford, MA) solution buffered with 50 mM ammonium bicarbonate were mixed (pH 7.8), 3.3 μL of 45 mM DTT in 100 mM NH4HCO3 was added to reduce artificial oxidized cysteine residues, and the mixture was kept at 37.5 °C for 30 min. After the sample was cooled to room temperature, reduction was quenched, and nascent thiols were alkylated by adding 4.16 μL of 100 mM iodoacetamide in 100 mM NH4HCO3. Samples were placed in the dark at room temperature for 30 min. The reduced and alkylated protein was then digested with 10 μL (1 mg/mL) of trypsin (the enzyme:protein ratio was 1:10) (Sigma, St. Louis, MO). The sample was incubated at 37 °C overnight. To degrade the surfactant, 7 μL of a formic acid (500 mM) solution was added to the digested protein sample, a final concentration of 40 mM (pH ≈2) was obtained, and the mixture was further incubated at 37 °C for 45 min. For LC-MS analysis, the acid-treated sample was centrifuged for 5 min at 13 000 rpm and the supernatant was pipetted into a microvial.
# For procedure A, an AB Sciex 6500 QTRAP hybrid triple quadruple linear ion trap mass spectrometer, equipped with a Turbo V ion source in electrospray mode and an Agilent 1100 Binary Pump HPLC system (Agilent Technologies, Waldbronn, Germany) consisting of an autosampler, was used for LC-MS/MS analysis. Data acquisition and processing were performed using Analyst version 1.6.2 (AB Sciex Instruments). Chromatographic separation was achieved by using the Discovery BIO Wide Pore C-18-5 column (250 mm × 2.1 mm, 5 μm, 300 Å). The sample was eluted with a gradient of solvent A (0.1% formic acid in water) and solvent B (0.1% formic acid in ACN). The flow rate was set to 0.2 mL min^–1. The initial process for separation was as follows: 5% B for 7 min, followed by a linear gradient to 90% B by […], 90% B from 60 to 64 min, and from 64 to 65 min back to the initial condition with 5% eluent B retained for 10 min. The injection volume was 10 μL. An information-dependent acquisiton (IDA) LC-MS/MS experiment was used to identify the modified tryptic peptide fragments. An enhanced MS scan (EMS) was used as a survey scan, and an enhanced product ion scan (EPI) was the dependent scan. Precursor ion selection criteria: ions greater than m/z 400, which exceeds 106 counts, exclude former target ions for 30 s after two occurrence(s). The scan rates in both survey and dependent scans were 1000 Da/s. Nitrogen was used as the nebulizer gas (GS1), heater gas (GS2), and curtain gas with the optimum values set at 50, 40, and 40 (arbitrary units), respectively. The source temperature was 350 °C, and the ion spray voltage was set at 5000 V. The declustering potential value was set to 150 V. The collision energy in EPI experiments was set to rolling collision energy mode, where the actual value was set on the basis of the mass and charge state of the selected ion. GPMAW version 4.2 was used to analyze the large number of MS-MS spectra and identify the modified tryptically digested peptides.
# For procedure B, to obtain more precise information about the structure, samples were further analyzed by a Triple TOF 5600+ hybrid Quadrupole-TOF LC/MS/MS system (Sciex) equipped with a DuoSpray IonSource coupled with a Shimadzu Prominence LC20 UFLC system consisting of a quaternary pump, an autosampler, and a thermostated column compartment. Data were acquired and processed using Analyst TF version 1.7.1 (AB Sciex Instruments). […]
# HDAC4 = HDAC4 (Homo sapiens, UniProt P56524); experiment: HDAC4 biochemical assay; conditions: preincubation 1 h, 1 nM HDAC4
# HDAC4, sequence (P56524 whole entry, species assumed): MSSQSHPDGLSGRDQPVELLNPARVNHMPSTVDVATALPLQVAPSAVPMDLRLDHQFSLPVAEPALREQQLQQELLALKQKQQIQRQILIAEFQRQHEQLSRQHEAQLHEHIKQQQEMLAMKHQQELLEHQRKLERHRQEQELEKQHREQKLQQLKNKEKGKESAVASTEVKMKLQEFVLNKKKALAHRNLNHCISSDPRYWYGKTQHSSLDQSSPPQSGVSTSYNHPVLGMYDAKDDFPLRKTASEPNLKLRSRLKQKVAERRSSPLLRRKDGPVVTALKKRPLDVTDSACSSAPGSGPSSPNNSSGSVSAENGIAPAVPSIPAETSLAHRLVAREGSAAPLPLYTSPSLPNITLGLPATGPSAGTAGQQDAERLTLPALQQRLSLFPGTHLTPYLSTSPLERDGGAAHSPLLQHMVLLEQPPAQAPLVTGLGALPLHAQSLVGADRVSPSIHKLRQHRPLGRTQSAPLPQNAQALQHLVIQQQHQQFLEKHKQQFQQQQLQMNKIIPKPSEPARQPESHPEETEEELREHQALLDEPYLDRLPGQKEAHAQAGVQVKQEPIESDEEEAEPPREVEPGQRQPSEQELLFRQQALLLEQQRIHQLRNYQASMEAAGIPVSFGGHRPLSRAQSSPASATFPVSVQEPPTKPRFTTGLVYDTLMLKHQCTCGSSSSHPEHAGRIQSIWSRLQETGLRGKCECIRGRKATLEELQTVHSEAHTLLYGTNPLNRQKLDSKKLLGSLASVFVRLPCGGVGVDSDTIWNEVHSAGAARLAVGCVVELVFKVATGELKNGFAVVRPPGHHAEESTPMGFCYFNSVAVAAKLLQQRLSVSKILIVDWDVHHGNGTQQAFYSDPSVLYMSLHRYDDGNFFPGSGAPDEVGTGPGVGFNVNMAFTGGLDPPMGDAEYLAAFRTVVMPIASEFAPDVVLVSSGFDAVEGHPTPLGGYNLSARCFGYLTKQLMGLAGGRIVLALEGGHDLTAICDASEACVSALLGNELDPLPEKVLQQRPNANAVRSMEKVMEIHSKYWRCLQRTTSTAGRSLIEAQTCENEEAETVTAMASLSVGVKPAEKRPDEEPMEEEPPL
# Experimental: The enzyme activity assay was performed in assay buffer [25 mM Tris-HCl (pH 8.0), 50 mM NaCl, and 0.001% (v/v) Pluronic F-68] in black half-area 96-well microplates (Greiner Bio-One). […] The reaction was initiated by the addition of 20 μM Boc-Lys(TFA)-AMC (Bachem). […] The deacetylated substrate was cleaved with 0.42 mg/mL trypsin to release fluorescent 7-amino-4-methylcoumarin (AMC), which was detected with a microplate reader (PHERAstar FS […]) with fluorescence excitation at 360 nm and emission at 460 nm. IC50 values were calculated by generating dose–response curves in GraphPad Prism 6 and fitting those to a four-parameter logistic model.
# MV4-11 cells = experiment: CellTiter-Blue cell viability assay; assay type: cell-based; conditions: Homo sapiens, 72 h, HDAC8-dependent line, Figure 7B
# Experimental: (§1) All cell lines were purchased from DSMZ (Braunschweig, Germany). The cell lines were regularly tested to exclude mycoplasma contamination and authenticated. […] Media were supplemented with 10% fetal calf serum (FCS), 10 units/mL penicillin, 10 μg/mL streptomycin, and 2 mM L-glutamine (all Gibco, Thermo Fisher Scientific).
# (§2) To determine the IC50 of the selected compounds on the cell lines, the CellTiter-Blue cell viability assay (Promega) was performed. For this, cells were seeded in 96-well flat-bottom plates at a cell density of 10 000 cells/well. Cells were treated in triplicate with the compound of interest at various concentrations or with 10 μM Bortezomib (S1013; Selleck Chemicals, Houston, TX), as a positive control. […] Plates were measured using a GloMax plate reader (Promega), and IC50 values were determined by nonlinear regression using GraphPad Prism version 9.1.1 (GraphPad Software, Inc.), and the data are reported as mean values ± the standard error of the mean.
# THP-1 cells = experiment: CellTiter-Blue cell viability assay; assay type: cell-based; conditions: Homo sapiens, 72 h
# Experimental: as §1, §2
SMILES,"MS/MS: modified HDAC8 peptide [148-165] (HDAC8; 25 μM HDAC8, 250 μM probe, 1 h)","MS/MS: modified HDAC8 peptide [241-250] (HDAC8; 25 μM HDAC8, 250 μM probe, 1 h)","MS/MS: modified HDAC8 peptide [1-34] (HDAC8; 25 μM HDAC8, 250 μM probe, 1 h)","MS/MS: modified HDAC8 peptide [260-287] (HDAC8; 25 μM HDAC8, 250 μM probe, 1 h)",also measured
"C#Cc1c[n+](C)ccc1NC(=O)CC(=O)N1Cc2ccccc2C1.[I-] [compound 3, 3-Ethynyl-4-[3-(isoindolin-2-yl)-3-oxopropanamido]-1-methylpyridin-1-ium Iodide]",,,,,"covalent labeling of HDAC8 cysteine by tryptic digestion and MS/MS (HDAC8): proved Cys153 covalent labeling; IC50 (HDAC4): 23.1 µM; IC50 (MV4-11 cells): 8.23 ± 0.12 µM; IC50 (THP-1 cells; Figure 7A, read-out: cell viability IC50, THP-1): 46.5 µM; IC50 (THP-1 cells; HDAC8-independent line, Figure 7B, read-out: THP-1 IC50): 78.1 ± 32.8 µM"
C[n+]1ccc(I)cc1 [C3+],modified,modified,,modified,"MS/MS: modified HDAC8 peptide [33-83] (HDAC8; 25 μM HDAC8, 250 μM probe, 1 h): modified"
C[n+]1ccccc1I [A3+],modified,modified,,,
C[n+]1cncc(I)c1 [F3+],modified,,modified,modified,"MS/MS: modified HDAC8 peptide [327-357] (HDAC8; 25 μM HDAC8, 250 μM probe, 1 h): modified"
C[n+]1cncc(Br)c1 [F2+],modified,,modified,modified,

# Now from value to compound, other results behind:
"MS/MS: modified HDAC8 peptide [148-165] (HDAC8; 25 μM HDAC8, 250 μM probe, 1 h)","MS/MS: modified HDAC8 peptide [241-250] (HDAC8; 25 μM HDAC8, 250 μM probe, 1 h)","MS/MS: modified HDAC8 peptide [1-34] (HDAC8; 25 μM HDAC8, 250 μM probe, 1 h)","MS/MS: modified HDAC8 peptide [260-287] (HDAC8; 25 μM HDAC8, 250 μM probe, 1 h)",SMILES,also measured
modified,modified,,,C[n+]1cccnc1Br [D2+],
modified,modified,modified,,C#Cc1cc[n+](C)cc1 [C6+],
,,modified,,C#Cc1nccc[n+]1C [D6+],
modified,,modified,modified,C#Cc1c[n+](C)ccn1 [G6+],
modified,modified,modified,modified,C[n+]1cccnc1I [D3+],
modified,modified,modified,,C[n+]1cccnc1Cl [D1+],
